Results as given in patent US4062948A, “Dihydromocimycin antibiotics” (Gist-Brocades N.V., priority 1970, dated 1977).
Values after ≈ are worked out from the molar mass of the structure shown. “Also recorded” adds a separate entry of the source.

Legend:
[1] = tested on: Staphylococcus aureus A 2000; assay: Agar dilution tests; assay type: cell-based; details: A2000, anaerobic culture, read-out: Minimum inhibitory concentration
[2] = tested on: Staphylococcus aureus A 2001; assay: Agar dilution tests; assay type: cell-based; details: A2001, anaerobic culture, read-out: Minimum inhibitory concentration
[3] = tested on: Diplococcus pneumoniae L54; assay: Agar dilution tests; assay type: cell-based; details: Streptococcus pneumoniae, anaerobic culture, read-out: Minimum inhibitory concentration
[4] = tested on: Salmonella typhimurium R172; assay: Agar dilution tests; assay type: cell-based; details: Salmonella enterica, anaerobic culture, read-out: Minimum inhibitory concentration
Escherichia coli U20 = assay: Agar dilution tests; assay type: cell-based; details: anaerobic culture, read-out: Minimum inhibitory concentration
[5] = tested on: Listeria monocytogenes A2130; assay: Agar dilution tests; assay type: cell-based; details: anaerobic culture, read-out: Minimum inhibitory concentration
[6] = tested on: Listeria monocytogenes A2131; assay: Agar dilution tests; assay type: cell-based; details: anaerobic culture, read-out: Minimum inhibitory concentration
[7] = tested on: Listeria monocytogenes A2132; assay: Agar dilution tests; assay type: cell-based; details: anaerobic culture, read-out: Minimum inhibitory concentration
[8] = tested on: Clostridium perfringens A738; assay: microbe, parasite or virus in culture; assay type: cell-based; details: A738, read-out: Minimum inhibitory concentration
[9] = tested on: Clostridium septicum A2152; assay: Agar dilution tests; assay type: cell-based; details: anaerobic culture, read-out: Minimum inhibitory concentration
[10] = tested on: Streptococcus zocepidemicus A2144; assay: Agar dilution tests; assay type: cell-based; details: anaerobic culture, read-out: Minimum inhibitory concentration
R-Streptococcen A2148 = assay: Agar dilution tests; assay type: cell-based; details: read-out: Minimum inhibitory concentration
[11] = tested on: Brucella suis (smooth) A2126; assay: microbe, parasite or virus in culture; assay type: cell-based; details: read-out: Minimum inhibitory concentration
[12] = tested on: Pasteurella haemolytica A2136; assay: Agar dilution tests; assay type: cell-based; details: Mannheimia haemolytica, anaerobic culture, read-out: Minimum inhibitory concentration
Treponema spec. A2275 = assay: Agar dilution tests; assay type: cell-based; details: anaerobic culture, read-out: Minimum inhibitory concentration
[13] = tested on: Bacillus subtilis ATCC 6633; assay: Liquid dilution tests; assay type: cell-based; details: ATCC6633, read-out: Minimum inhibitory concentration
[14] = tested on: Bacillus subtilis ATCC 6051; assay: Liquid dilution tests; assay type: cell-based; details: ATCC6051, read-out: Minimum inhibitory concentration
[15] = tested on: Bacillus subtilis 6346 D167; assay: Liquid dilution tests; assay type: cell-based; details: read-out: Minimum inhibitory concentration
[16] = tested on: Bacillus subtilis 220 D178; assay: Liquid dilution tests; assay type: cell-based; details: read-out: Minimum inhibitory concentration
Bacillus subtilis TH 10 = assay: Liquid dilution tests; assay type: cell-based; details: TH10, read-out: Minimum inhibitory concentration
Bacillus cereus D166 = assay: Liquid dilution tests; assay type: cell-based; details: read-out: Minimum inhibitory concentration
Bacillus cereus D261 = assay: Liquid dilution tests; assay type: cell-based; details: read-out: Minimum inhibitory concentration
Bacillus cereus D220 = assay: Liquid dilution tests; assay type: cell-based; details: read-out: Minimum inhibitory concentration
Bacillus cereus B569 = assay: Liquid dilution tests; assay type: cell-based; details: read-out: Minimum inhibitory concentration
Bacillus cereus TH 1 = assay: Liquid dilution tests; assay type: cell-based; details: TH1, read-out: Minimum inhibitory concentration
[17] = tested on: Bacillus thuringiensis W11; assay: Liquid dilution tests; assay type: cell-based; details: read-out: Minimum inhibitory concentration
[18] = tested on: Bacillus mesenterium D169; assay: Liquid dilution tests; assay type: cell-based; details: read-out: Minimum inhibitory concentration
[19] = tested on: Bacillus cereus var. mycoides; assay: microbe, parasite or virus in culture; assay type: cell-based; details: read-out: Minimum inhibitory concentration
[20] = tested on: Streptococcus haemolyticus A266; assay: Liquid dilution tests; assay type: cell-based; details: A266, read-out: Minimum inhibitory concentration
[21] = tested on: Streptococcus haemolyticus A2182; assay: Liquid dilution tests; assay type: cell-based; details: read-out: Minimum inhibitory concentration
[22] = tested on: Mycoplasma hyorhinus A2230; assay: Liquid dilution tests; assay type: cell-based; details: A2230, read-out: Minimum inhibitory concentration
[23] = tested on: Streptomyces viridochromogenes; assay: Liquid dilution tests; assay type: cell-based; details: read-out: Minimum inhibitory concentration
Solubility = assay type: physicochemical
[24] = growth and feed-conversion of animals being fattened; assay type: in vivo; details: low concentration in feed; chickens or pigs
From the text: Many properties of dihydromocimycin are similar to those of mocimycin.

[25] = tested on: Brucella melitensis A 488; assay: microbe, parasite or virus in culture; assay type: cell-based; details: A488, 18 h, read-out: Minimum inhibitory concentration
[26] = tested on: Pseudomonas aeruginosa 2396; assay: micro liquid serial dilution test (Table II); assay type: cell-based; details: 18 hours at 30° C or 37° C, recently isolated hospital strain, read-out: Minimum inhibitory concentration
Protocol: (§1) The microbiological activity of the antibiotic preparation towards a number of micoorganisms has been determined by a micro liquid serial dilution test:
(§2) A stock solution of the test compounds at a concentration of 200 μg/ml in 0.05 molar phosphate buffer at a pH of 6.5 was prepared and serial 1:1 dilutions were made with a liquid medium inoculated with the test organism, using conventional glass spot-test plates. The plates were incubated 18 hours at 30° C or 37° C. The minimum inhibitory concentration (MIC) which is the smallest concentration of compound completely inhibiting the growth of the test organism is read and calculated in μg/ml.
(§3) wherein ') indicates penicillinase-producer; ") indicates recently isolated hospital strain.

[27] = tested on: Staphylococcus aureus A 355; assay: micro liquid serial dilution test (Table II); assay type: cell-based; details: A355, 18 hours at 30° C or 37° C, penicillinase-producer, read-out: Minimum inhibitory concentration
Protocol: as §1, §2, §3

[28] = tested on: Staphylococcus aureus L 160a; assay: micro liquid serial dilution test (Table II); assay type: cell-based; details: 18 h, read-out: Minimum inhibitory concentration
Protocol: as §1, §2, §3

rats = assay: three-month oral toxicity in rats; assay type: in vivo; details: up to 0.1% in the diet, three months
From the text: The toxicity of the antibiotic has been studied in various animals.

For `CC=CC=CC1OC(O)(C(CC)C(=O)NCC=CC=C(C)C(OC)C(C)C2OC(C=CC=CC=C(C)C(=O)C3=C(O)CCNC3=O)C(O)C2O)C(O)C(O)C1(C)C` (stereo not drawn) [dihydromocimycin], the MIC [1] was > 100 µg/mL, the MIC [2] was > 100 µg/mL and the MIC [3] was < 0.75 µg/mL. For the same compound, the MIC [4] was > 100 µg/mL, the MIC (Escherichia coli U20) was 100 µg/mL (≈ 125 µM) and the MIC [5] was 1.5 µg/mL (≈ 1.88 µM). For the same compound, the MIC [6] was 6 µg/mL (≈ 7.51 µM), the MIC [7] was 6 µg/mL (≈ 7.51 µM) and the MIC [8] was > 100 µg/mL. For the same compound, the MIC [9] was 10 µg/mL (≈ 12.5 µM), the MIC [10] was 6 µg/mL (≈ 7.51 µM) and the MIC (R-Streptococcen A2148) was 3 µg/mL (≈ 3.75 µM). It also gave an MIC [11] of 0.4 µg/mL (≈ 0.501 µM), an MIC [12] of 1.5 µg/mL (≈ 1.88 µM) and an MIC (Treponema spec. A2275) of 10 µg/mL (≈ 12.5 µM). For the same compound, the MIC [13] was 50 µg/mL (≈ 62.6 µM), the MIC [14] was 50 µg/mL (≈ 62.6 µM) and the MIC [15] was 0.9 µg/mL (≈ 1.13 µM). The MIC [16] was 75 µg/mL (≈ 93.9 µM), the MIC (Bacillus subtilis TH 10) was 50 µg/mL (≈ 62.6 µM) and the MIC (Bacillus cereus D166) was 0.6 µg/mL (≈ 0.751 µM). For the same compound, the MIC (Bacillus cereus D261) was 0.6 µg/mL (≈ 0.751 µM), the MIC (Bacillus cereus D220) was 0.9 µg/mL (≈ 1.13 µM) and the MIC (Bacillus cereus B569) was 1.2 µg/mL (≈ 1.5 µM). It also gave an MIC (Bacillus cereus TH 1) of 1.2 µg/mL (≈ 1.5 µM), an MIC [17] of 0.9 µg/mL (≈ 1.13 µM) and an MIC [18] of 50 µg/mL (≈ 62.6 µM). The MIC [19] was 0.45 µg/mL (≈ 0.563 µM), the MIC [20] was 0.45 µg/mL (≈ 0.563 µM) and the MIC [21] was 0.12 µg/mL (≈ 0.15 µM). For the same compound, the MIC [22] was 0.3 µg/mL (≈ 0.375 µM), the MIC [23] was 0.9 µg/mL (≈ 1.13 µM) and the solubility (Solubility; carbon tetrachloride and benzene (dihydromocimycin)) was “moderate”. For the same compound, the solubility (Solubility; chloroform, methyl isobutyl ketone, ethyl acetate, butyl acetate, acetone, dioxan, methanol, ethanol, tetrahydrofuran, weakly alkaline aqueous solutions) was “good”, the solubility (Solubility; diethyl ether, water, weakly acid aqueous solutions, cyclohexane and petroleum ether) was “insoluble” and the growth and feed-conversion [24] was “does not show any improvement of the growth or feed-conversion; also recorded: does not show the aforesaid properties”.
In the case of `CC=CC=CC1OC(O)(C(CC)C(=O)NCC=CC=C(C)C(OC)C(C)C2OC(C=CC=CC=C(C)C(=O)c3c(O)cc[nH]c3=O)C(O)C2O)C(O)C(O)C1(C)C` (stereo not drawn) [mocimycin], the MIC [25] is reported as 1 µg/mL (≈ 1.25 µM), the MIC [26] is reported as > 100 µg/mL and the MIC [27] is reported as 100 µg/mL (≈ 125 µM). The MIC [28] was > 200 µg/mL, the MIC [1] was > 100 µg/mL and the MIC [2] was > 100 µg/mL. The MIC [3] was 1.5 µg/mL (≈ 1.88 µM), the MIC [4] was > 100 µg/mL and the MIC (Escherichia coli U20) was > 100 µg/mL. For the same compound, the MIC [5] was 6 µg/mL (≈ 7.53 µM), the MIC [6] was 6 µg/mL (≈ 7.53 µM) and the MIC [7] was 6 µg/mL (≈ 7.53 µM). For the same compound, the MIC [8] was > 100 µg/mL, the MIC [9] was 10 µg/mL (≈ 12.5 µM) and the MIC [10] was 6 µg/mL (≈ 7.53 µM). For the same compound, the MIC (R-Streptococcen A2148) was 6 µg/mL (≈ 7.53 µM), the MIC [11] was 0.75 µg/mL (≈ 0.941 µM) and the MIC [12] was 3 µg/mL (≈ 3.76 µM). The MIC (Treponema spec. A2275) was 30 µg/mL (≈ 37.6 µM), the MIC [13] was 100 µg/mL (≈ 125 µM) and the MIC [14] was 100 µg/mL (≈ 125 µM). For the same compound, the MIC [15] was 1.2 µg/mL (≈ 1.51 µM), the MIC [16] was 75 µg/mL (≈ 94.1 µM) and the MIC (Bacillus subtilis TH 10) was 100 µg/mL (≈ 125 µM). The MIC (Bacillus cereus D166) was 0.6 µg/mL (≈ 0.753 µM), the MIC (Bacillus cereus D261) was 0.9 µg/mL (≈ 1.13 µM) and the MIC (Bacillus cereus D220) was 1.2 µg/mL (≈ 1.51 µM). The MIC (Bacillus cereus B569) was 2.5 µg/mL (≈ 3.14 µM), the MIC (Bacillus cereus TH 1) was 1.8 µg/mL (≈ 2.26 µM) and the MIC [17] was 1.2 µg/mL (≈ 1.51 µM). It also gave an MIC [18] of 100 µg/mL (≈ 125 µM), an MIC [19] of 1.2 µg/mL (≈ 1.51 µM) and an MIC [20] of 0.45 µg/mL (≈ 0.565 µM). It also gave an MIC [21] of 0.25 µg/mL (≈ 0.314 µM), an MIC [22] of 1 µg/mL (≈ 1.25 µM) and an MIC [23] of 2.5 µg/mL (≈ 3.14 µM). The solubility (Solubility; carbon tetrachloride and benzene (mocimycin)) was “poor”, the solubility (Solubility; chloroform, methyl isobutyl ketone, butyl acetate, ethyl acetate, acetone, methanol and alkaline solutions) was “good” and the solubility (Solubility; diethyl ether, petroleum ether, water and acid solutions) was “insoluble”. The solubility (Solubility; pH 9) was “poorly soluble”, the undesired pharmacological effect (rats) was “does not result in any undesired pharmacological effect” and the growth and feed-conversion [24] was “improves the growth and the feed-conversion markedly; also recorded: advantageous growth-promoting properties”.
